Assay results published in ChEMBL document CHEMBL1150757, “Isolation, structure, synthesis, and antimitotic properties of combretastatins B-3 and B-4 from Combretum caffrum” (J Nat Prod, 1988).

Tests used:
[1] = Displacement of [3H]colchicine from tubulin at inhibitor and colchicine ratio 1:1 after 10 mins relative to control; set-up: concentration or dose not given beside the values; conditions: values are per cent of control
P388 = test: Cytotoxicity against mouse P388 cells; format: functional
L1210 [2] = test: Cytotoxicity against mouse L1210 cells after 24 hrs; format: functional, cell-based; conditions: L1210, 24 h
L1210 [3] = test: Antimitotic activity in mouse L1210 cells assessed as increase in mitotic index at 2 to 7 times IC50 after 6 hrs relative to control; format: functional
[4] = Displacement of [3H]colchicine from tubulin at inhibitor and colchicine ratio 10:1 after 10 mins relative to control; set-up: concentration or dose not given beside the values; conditions: values are per cent of control
[5] = Inhibition of microtubule assembly after 15 mins
[6] = Displacement of [3H]colchicine from tubulin at inhibitor and colchicine ratio 100:1 after 10 mins relative to control; conditions: values are per cent of control

Row | SMILES | residual binding, % of control [1] [%] | ED50 (P388) [Ug/ml] | IC50 (L1210 [2]) [µM] | Activity (L1210 [3]) [%] | residual binding, % of control [4] [%] | IC50 [5] [µM] | residual binding, % of control [6] [%]
1 | COc1cc(CCc2ccc(O)cc2)cc(OC)c1OC | 89 | 0.25 | 50 | 25 | 77 | > 100 | 43
2 | COc1cc(CCc2ccc(OC)c(O)c2)cc(OC)c1 | 38 | 1.7 | 1 | 25 | 8 | 30 | 3
3 | COc1cc(CCc2ccc(O)c(O)c2)cc(OC)c1OC | 92 | 0.4 | 3 | 25 | 81 | > 100 | 48
4 | COc1ccc(CCc2cc(OC)c(OC)c(OC)c2)cc1OC | 88 | – | 20 | 25 | 63 | > 100 | 37
5 | COc1ccc(CCc2cc(OC)c(OC)c(OC)c2)c(O)c1O | 13 | – | 2 | 25 | 0 | 4 | –
6 | COc1cc(CCc2ccc(OC)c(OC)c2)cc(OC)c1 | 90 | – | 30 | 56 | 80 | > 100 | 34
7 | COc1ccc(/C=C\c2cc(OC)c(OC)c(OC)c2)c(O)c1O [COMBRETASTATIN A-1] | 3 | – | 0.6 | 25 | 0 | 4 | –
8 | COc1cc([C@@H]2c3cc4c(cc3[C@H](O)[C@H]3COC(=O)[C@H]23)OCO4)cc(OC)c1OC [PODOFILOX] | 11 | – | – | – | 0 | 4 | –
9 | COc1cc(CCc2ccc(O)c(O)c2)cc(OC)c1 | 75 | 1.7 | 1 | 25 | 31 | > 100 | 10
